The species entered for one data set is Homo sapiens. Put plainly: Inhibition of LPS-induced NF-kappaB transcription (unknown origin) expressed in human SW480 cells at 10 uM by luciferase reporter gene assay. It is filed as cell-based. On the technique in general: Reporter assays use an easily measured gene product as a stand-in for the process of interest.
A short description of data set [1]: Inhibition of LPS-induced NF-kappaB transcription (unknown origin) expressed in human SW480 cells by luciferase reporter gene assay. Format: cell-based.
Another data set concerns RAW264.7. Put plainly: Antiinflammatory activity in mouse RAW264.7 cells assessed as inhibition of LPS-induced NO production at 10 uM after 24 hrs by Griess reagent based assay relative to control. The note with it: RAW264.7, 24 h. It is filed as functional. For orientation: The Griess reaction detects nitrite, a stable product of nitric oxide.
Data set [2] in a line: Growth inhibition of human HEK293T cells at 10 uM after 24 hrs by MTS assay relative to control. Format: cell-based, HEK-293T. The note with it: HEK293T cells, read-out: GI. (Tetrazolium assays rely on reduction of a dye to a coloured formazan, in cell work by metabolically active cells.)
Another data set has as its system HepG2. Description: Growth inhibition of human HepG2 cells at 10 uM after 24 hrs by MTS assay relative to control. It is filed as functional. Conditions: HepG2, 24 h, read-out: GI.
In data set [3] the test system is SW480. Put plainly: Growth inhibition of human SW480 cells at 10 uM after 24 hrs by MTS assay relative to control. Conditions: SW480, 24 h, read-out: GI. Format: functional.
The test system of data set [4] is MCF7. Put plainly: Growth inhibition of human MCF7 cells at 10 uM after 24 hrs by MTS assay relative to control. Conditions: MCF7, 24 h, read-out: GI. Format: functional.
In data set [5] the target is T1, Tyrosine-protein phosphatase non-receptor type 1 (Homo sapiens) (UniProt P18031).
T1 sequence (whole entry): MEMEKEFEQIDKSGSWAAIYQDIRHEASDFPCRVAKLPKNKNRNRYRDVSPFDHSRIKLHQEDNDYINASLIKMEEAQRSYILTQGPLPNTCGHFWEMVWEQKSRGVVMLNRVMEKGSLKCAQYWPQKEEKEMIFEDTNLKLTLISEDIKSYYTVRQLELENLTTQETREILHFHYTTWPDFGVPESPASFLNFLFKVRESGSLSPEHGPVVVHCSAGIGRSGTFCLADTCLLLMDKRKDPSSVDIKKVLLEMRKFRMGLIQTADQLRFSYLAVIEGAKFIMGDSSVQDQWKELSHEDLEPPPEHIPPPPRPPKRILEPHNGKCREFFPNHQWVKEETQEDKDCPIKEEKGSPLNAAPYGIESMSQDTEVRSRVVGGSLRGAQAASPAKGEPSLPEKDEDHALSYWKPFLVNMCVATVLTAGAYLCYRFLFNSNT
Description: Inhibition of recombinant human PTP1B using p-nitrophenyl phosphate as substrate at 10 uM after 30 mins relative to control.

Data set [6] in a line: Growth inhibition of human LO2 cells at 10 uM after 24 hrs by MTS assay relative to control. Format: cell-based, L02. Conditions: LO2 cells, read-out: GI.
In data set [7] the target is Mushroom tyrosinase (Agaricus bisporus) (UniProt O42713+Q00024+C7FF04+C7FF05). Put plainly: Inhibition of mushroom tyrosinase at 10 uM using L-tyrosine as substrate incubated for 15 mins followed by substrate addition relative to control.
The target in data set [8] is T2, Tyrosine-protein phosphatase non-receptor type 1 (Homo sapiens, UniProt P18031).
T2 sequence (P18031 whole entry): T1 sequence (whole entry)
Put plainly: Inhibition of recombinant human PTP1B using p-nitrophenyl phosphate as substrate after 30 mins.

Data set [9] has as its system SW480. Description: Cytotoxicity against human SW480 cells assessed as reduction in cell viability after 24 hrs by MTS assay. The note with it: SW480, 24 h. It is filed as functional, cell-based.
Data set [10] concerns MCF7. Put plainly: Cytotoxicity against human MCF7 cells assessed as reduction in cell viability after 24 hrs by MTS assay. It is filed as functional, cell-based. The note with it: MCF7, 24 h.

The values below come from ChEMBL document CHEMBL4033705, “Screening for bioactive natural products from a 67-compound library of Glycyrrhiza inflata” (Bioorg Med Chem, 2017).

A word on the IC50: it is the concentration at which inhibition is half-maximal.

The structures appear in SMILES notation.

Turning to `C=CC(C)(C)c1cc(/C=C/C(=O)c2ccc(O)cc2)c(OC)c(O)c1O`, the inhibition was found to be 66% in the data set listed under Homo sapiens, 48% in data set [5] and 12% in [7]. Half-maximal inhibition in data set [1] (IC50) was put at 6.67 µM. For the same molecule, in the data set with RAW264.7, the inhibition at 10 µM came out at 50%. Moreover, the inhibition at 24 h, 10 µM in data set [2] came to 11%; in [6], 5%. The values for the inhibition of growth at 10 µM in the data set on HepG2, in the data set on SW480 [3] and with MCF7 [4] were 22%, 36% and 31%, respectively.

Regarding `CC(C)=CCc1cc([C@@H]2CC(=O)c3c(cc(O)c(CC=C(C)C)c3O)O2)ccc1O` [MACARANGAFLAVANONE B], the inhibition in the data set listed under Homo sapiens came out at 24%; in data set [5] it was 90%; in data set [7] it was 5%. For the same molecule, in the data set with RAW264.7, the inhibition at 10 µM stood at 5%. Besides, the inhibition of growth at 10 µM was found to be 10% with HepG2, 87% in the data set on SW480 [3] and 36% in the data set on MCF7 [4]. In addition, in data set [8], the IC50 stood at 1.03 µM.

With `CC(C)=CCc1cc(/C=C/C(=O)c2ccc(O)cc2O)ccc1O` [LICOAGROCHALCONE A], the inhibition in the data set listed under Homo sapiens was 25%; in [5] it was 98%; in [7], 16%. Moreover, the inhibition at 10 µM in the data set with RAW264.7 is 16%. Besides, the inhibition at 24 h, 10 µM came out at 2% in data set [2] and 3% in [6]. For the same molecule, the values for the inhibition of growth at 10 µM in the data set on HepG2, with SW480 [3] and with MCF7 [4] were 2%, 12% and 2%, respectively. Also, in data set [8], the IC50 worked out at 0.97 µM.

`CC(C)=CCc1cc(-c2coc3c(CC=C(C)C)c(O)cc(O)c3c2=O)cc(O)c1O`: the inhibition in the data set listed under Homo sapiens came to 14%; in data set [5] it was 92%; in data set [7] it was 2%. In addition, in the data set on RAW264.7, the inhibition at 10 µM is 0%. Besides, the inhibition of growth at 10 µM in the data set on HepG2 came out at 0%; with SW480 [3], 55%; with MCF7 [4] it was 3%. Further, in data set [8], the IC50 is 4.5 µM.

`CC(C)=CCc1cc(/C=C/C(=O)c2ccc(O)c(CC=C(C)C)c2O)ccc1O` [KANZONOL C]: the inhibition in the data set filed under Homo sapiens was found to be 6%; in data set [5], 90%; in data set [7], 0%. Besides, the inhibition at 10 µM in the data set with RAW264.7 was determined as 19%. For the same molecule, the half-maximal inhibitory concentration (IC50) with SW480 [9] was determined as 6.1 µM; in the data set with MCF7 [10], 9.15 µM; in data set [8], 0.45 µM. The figures for the inhibition at 24 h, 10 µM in data set [2] and in [6] were 21% and 34%, respectively. Further, the results for the inhibition of growth at 10 µM in the data set on HepG2, with SW480 [3] and in the data set with MCF7 [4] were 27%, 96% and 79%, respectively.

For the molecule `CC(C)=CCc1c(O)c(CC=C(C)C)c2occ(-c3ccc(O)cc3)c(=O)c2c1O`, the inhibition was 26% in the data set listed under Homo sapiens, 51% in data set [5] and 7% in data set [7]. In the data set with RAW264.7, the inhibition at 10 µM stood at 22%. The concentration for half-maximal inhibition (IC50) came to 8.08 µM with SW480 [9] and 8.58 µM in the data set with MCF7 [10]. The values for the inhibition at 24 h, 10 µM in data set [2] and in [6] were 49% and 12%, respectively. In addition, the inhibition of growth at 10 µM with HepG2 came out at 30%; in the data set on SW480 [3], 81%; in the data set on MCF7 [4], 73%.

`CC1(C)C=Cc2c(ccc(-c3cc4ccc(O)cc4o3)c2O)O1`: the figures for the inhibition (in the data set filed under Homo sapiens; in [5]; in data set [7]) were 73%, 15% and 14%, respectively. The molecule further registered a half-maximal inhibitory concentration (IC50) in data set [1] of 3.1 µM. Also, the inhibition at 10 µM in the data set with RAW264.7 stood at 22%. Moreover, the inhibition at 24 h, 10 µM in data set [2] amounted to 11%; in data set [6], 4%. The inhibition of growth at 10 µM in the data set on HepG2 stood at 5%; with SW480 [3], 31%; in the data set on MCF7 [4], 0%.

Turning to `CC(C)=CCc1c(O)c(CC=C(C)C)c2oc(-c3ccc(O)cc3)cc(=O)c2c1O`, the inhibition came to 34% in the data set filed under Homo sapiens, 47% in data set [5] and 0% in [7]. In addition, in the data set with RAW264.7, the inhibition at 10 µM came out at 9%. Moreover, the inhibition at 24 h, 10 µM in data set [2] was found to be 20%; in [6] it was 46%. The inhibition of growth at 10 µM was determined as 11% in the data set with HepG2, 61% in the data set on SW480 [3] and 68% with MCF7 [4]. Moreover, the half-maximal inhibitory concentration (IC50) in the data set on MCF7 [10] turned out to be 12.2 µM.

For `CC(C)=CCc1cc(-c2cc(=O)c3c(O)c(CC=C(C)C)c(O)cc3o2)ccc1O`, the inhibition in the data set listed under Homo sapiens is 0%; in data set [5], 94%; in [7], 12%. Moreover, the inhibition at 10 µM in the data set on RAW264.7 amounted to 5%. The IC50 with SW480 [9] was found to be 6.35 µM; in data set [8], 0.55 µM. Also, the inhibition at 24 h, 10 µM worked out at 3% in data set [2] and 33% in [6]. Moreover, the figures for the inhibition of growth at 10 µM with HepG2, in the data set on SW480 [3] and with MCF7 [4] were 34%, 86% and 25%, respectively.

Take `CC(C)=CCc1c(O)ccc2c1O[C@H](c1ccc3c(c1)C=CC(C)(C)O3)CC2=O`: the figures for the inhibition (in the data set listed under Homo sapiens; in [5]; in data set [7]) were 20%, 50% and 15%, respectively. In addition, in the data set on RAW264.7, the inhibition at 10 µM turned out to be 24%. Also, the results for the IC50 with SW480 [9] and in the data set with MCF7 [10] were 9.84 µM and 12.9 µM, respectively. Also, the inhibition at 24 h, 10 µM in data set [2] is 25%; in data set [6], 2%. In addition, the inhibition of growth at 10 µM in the data set on HepG2 worked out at 14%; in the data set with SW480 [3] it was 72%; in the data set on MCF7 [4] it was 75%.

With `CC1(C)C=Cc2cc(/C=C/C(=O)c3ccc(O)cc3O)ccc2O1`, the figures for the inhibition (in the data set listed under Homo sapiens; in data set [5]; in [7]) were 78%, 33% and 1%, respectively. This molecule also showed an IC50 in data set [1] of 7.27 µM. The inhibition at 10 µM in the data set with RAW264.7 was found to be 23%. Moreover, the inhibition at 24 h, 10 µM came to 7% in data set [2] and 5% in [6]. The inhibition of growth at 10 µM in the data set with HepG2 is 0%; in the data set with SW480 [3], 14%; with MCF7 [4] it was 14%.

Take `CC(C)=CCc1c(O)ccc([C@H]2COc3cc(O)c(CC=C(C)C)c(O)c3C2=O)c1O`: the inhibition in the data set filed under Homo sapiens stood at 37%; in data set [5], 98%; in data set [7], 7%. Also, the inhibition at 10 µM with RAW264.7 was 14%. Besides, the inhibition at 24 h, 10 µM in [2] is 4%; in data set [6] it was 0%. Moreover, the results for the inhibition of growth at 10 µM in the data set on HepG2, in the data set with SW480 [3] and with MCF7 [4] were 25%, 2% and 44%, respectively. Besides, the IC50 in data set [8] worked out at 0.84 µM.

In the case of `C=CC(C)(C)c1cc(/C=C/C(=O)c2ccc(O)cc2)c(OC)cc1O` [LICOAGROCHACONE A], the inhibition in the data set listed under Homo sapiens came to 56%; in data set [5] it was 18%; in data set [7] it was 1%. Further, the half-maximal inhibitory concentration (IC50) in data set [1] is 13.9 µM. The inhibition at 10 µM with RAW264.7 was 39%. Further, the values for the inhibition at 24 h, 10 µM in data set [2] and in data set [6] were 4% and 16%, respectively. For the same molecule, the inhibition of growth at 10 µM in the data set with HepG2 came to 14%; with SW480 [3] it was 7%; in the data set with MCF7 [4] it was 10%.
